{"source": "patent US11098010B2", "about": "(priority 2017, dated 2021)", "note": "pEC50: −log10 of the molar value. Where a name gives a salt, the structure may show the parent alone."}
{"system": "HBV rcDNA in HepDE19 cells", "assay": "HepDE19 assay with bDNA quantitation of HBV rcDNA", "format": "cell-based, hepatitis B virus (HBV)", "details": "HepDE19 cells, inhibition of rcDNA formation, 7 day incubation, top concentration 25 μM; read-out: DE-19 bDNA EC50"}
{"smiles": "O=C(Nc1ccc(F)c(Cl)c1)c1ccc(F)c2c1CCC21NC(=O)N(Cc2ccccn2)C1=O", "note": "(centres unmarked) [Compound 259, N-(3-chloro-4-fluoro-phenyl)-7′-fluoro-2,5-dioxo-1-(2-pyridylmethyl) spiro[imidazolidine-4,1′-indane]-4′-carboxamide]", "pEC50": 5.54}
{"smiles": "COC(=O)NC1c2c(F)ccc(C(=O)Nc3ccc(F)c(Cl)c3)c2CC1(F)F", "note": "(centres unmarked) [Compound 210, O-methyl, N-((4-((3-chloro-4-fluorophenyl)carbamoyl)-2,2,7-trifluoro-2,3-dihydro-1H-inden-1-yl) carbamate]", "pEC50": 4.82}
{"smiles": "CN1C(=O)NC2(CCc3c(C(=O)Nc4ccc(F)c(Cl)c4)ccc(F)c32)C1=O", "note": "(single isomer, unassigned) [Compound 262, N-(3-chloro-4-fluoro-phenyl)-7′-fluoro-1-methyl-2,5-dioxo-spiro [imidazolidine-4,1′-indane]-4′-carboxamide]", "pEC50": 4.85}
{"smiles": "O=C(NC1CCc2c(C(=O)Nc3ccc(F)c(Cl)c3)ccnc21)OCc1ccccn1", "note": "(centres unmarked) [Compound 265, O-pyridin-2-ylmethyl, N-(4-((3-chloro-4-fluorophenyl)carbamoyl)-6,7-dihydro-5H-cyclopenta[b]pyridin-7-yl) carbamate]", "pEC50": 6.27}
{"smiles": "COC(=O)NC1c2c(F)ccc(C(=O)Nc3ccc(F)c(F)c3)c2CC1OC", "note": "(centres unmarked) [Compound 244, O-methyl, N-(4-((3,4-difluorophenyl)carbamoyl)-7-fluoro-2-methoxy-2,3-dihydro-1H-inden-1-yl) carbamate]", "pEC50": 5.70}
{"system": "HBV rcDNA in HepDE19 cells", "assay": "HepDE19 assay with bDNA quantitation of HBV rcDNA", "format": "cell-based, hepatitis B virus (HBV)", "details": "Hepatitis B virus, HepDE19, 168 h, HepDE19 cells, inhibition of rcDNA formation, 7 day incubation, top concentration 25 μM; read-out: DE-19 bDNA EC50"}
{"smiles": "O=C(NCc1ccccn1)O[C@H]1CCc2c(C(=O)Nc3ccc(F)c(Cl)c3)ccc(F)c21", "note": "[Compound 74, N—(S)-4-((3-Chloro-4-fluorophenyl)carbamoyl)-7-fluoro-2,3-dihydro-1H-inden-1-yl, O-(pyridin-2-ylmethyl) carbamate]", "pEC50": 5.80}
{"smiles": "O=C(N[C@H]1CCc2c(C(=O)Nc3ccc(F)c(Cl)c3)ccc(F)c21)OCc1cscn1", "note": "[Compound 124, O-Thiazol-4-ylmethyl, N—(S)-(4-((3-chloro-4-fluorophenyl)carbamoyl)-7-fluoro-2,3-dihydro-1H-inden-1-yl) carbamate]", "pEC50": 7.22}
{"smiles": "CCS(=O)(=O)N[C@H]1CCc2c(C(=O)Nc3ccc(F)c(Cl)c3)ccc(F)c21", "note": "[Compound 232, (S)—N-(3-Chloro-4-fluorophenyl)-1-(ethylsulfonamido)-7-fluoro-2,3-dihydro-1H-indene-4-carboxamide]", "pEC50": 6.62}
{"smiles": "O=C(N[C@H]1CCc2c(C(=O)Nc3ccc(F)c(Cl)c3)ccc(F)c21)O[C@H]1CCOC1", "note": "[Compound 181, O—(S)-Tetrahydrofuran-3-yl, N—((S)-4-((3-chloro-4-fluorophenyl)carbamoyl)-7-fluoro-2,3-dihydro-1H-inden-1-yl) carbamate]", "pEC50": 6.82}
{"smiles": "COC(=O)NC1CCc2c(C(=O)Nc3ccc(F)c(Cl)c3)ccnc21", "note": "(centres unmarked) [Compound 264, O-Methyl, N-(4-((3-chloro-4-fluorophenyl)carbamoyl)-6,7-dihydro-5H-cyclopenta[b]pyridin-7-yl) carbamate]", "pEC50": 6.27}
{"smiles": "O=C(NC1CSc2c(C(=O)Nc3ccc(F)c(F)c3)cccc21)OCc1ccccn1", "note": "(single isomer, unassigned) [Compound 33, O-Pyridin-2-ylmethyl, N-(7-((3,4-difluorophenyl)carbamoyl)-2,3-dihydrobenzo[b]thiophen-3-yl) carbamate hydrochloride]", "pEC50": 5.96}
{"smiles": "O=C(N[C@@H]1c2cccc(C(=O)Nc3ccc(F)c(Cl)c3)c2C[C@H]1O)OCc1ccccn1", "note": "[Compound 51, O-Pyridin-2-ylmethyl, N-((1R,2R)-4-((3-chloro-4-fluorophenyl)carbamoyl)-2-hydroxy-2,3-dihydro-1H-inden-1-yl) carbamate]", "pEC50": 6.06}
{"smiles": "O=C(N[C@H]1CCc2c(C(=O)Nc3ccc(F)c(Cl)c3)ccc(F)c21)c1cnco1", "note": "[Compound 129, (S)—N-(4-((3-Chloro-4-fluorophenyl)carbamoyl)-7-fluoro-2,3-dihydro-1H-inden-1-yl)oxazole-5-carboxamide]", "pEC50": 6.39}
{"smiles": "O=C(Nc1ccc(F)c(Cl)c1)c1cncc2c1CCC2NS(=O)(=O)C1CC1", "note": "(racemic) [Compound 268, N-(3-Chloro-4-fluorophenyl)-7-(cyclopropanesulfonamido)-6,7-dihydro-5H-cyclopenta[c]pyridine-4-carboxamide]", "pEC50": 5.09}
{"smiles": "CNC(=O)N[C@H]1CCc2c(C(=O)Nc3ccc(F)c(F)c3)cccc21", "note": "[Compound 2, (S)—N-(3,4-Difluorophenyl)-1-(3-methylureido)-2,3-dihydro-1H-indene-4-carboxamide]", "pEC50": 5.85}
{"smiles": "O=C(N[C@H]1CCc2c(C(=O)Nc3ccc(F)c(Cl)c3)ccc(F)c21)OCc1cocn1", "note": "[Compound 93, O-Oxazol-4-ylmethyl, N—(S)-(4-((3-chloro-4-fluorophenyl)carbamoyl)-7-fluoro-2,3-dihydro-1H-inden-1-yl) carbamate]", "pEC50": 6.31}
{"smiles": "CS(=O)(=O)N[C@H]1CCc2c(C(=O)Nc3ccc(F)c(Cl)c3)ccc(F)c21", "note": "[Compound 117, (S)—N-(3-chloro-4-fluorophenyl)-7-fluoro-1-(methylsulfonamido)-2,3-dihydro-1H-indene-4-carboxamide]", "pEC50": 6.28}
{"smiles": "N[C@H]1CCc2c(C(=O)Nc3ccc(F)c(Cl)c3)ccc(F)c21", "note": "[Compound 13, (S)-1-Amino-N-(3-chloro-4-fluorophenyl)-7-fluoro-2,3-dihydro-1H-indene-4-carboxamide]", "pEC50": "< 4.60"}
{"smiles": "Cn1ccnc1COC(=O)N[C@H]1CCc2c(C(=O)Nc3ccc(F)c(Cl)c3)ccc(F)c21", "note": "[Compound 137, O-(1-Methyl-1H-imidazol-2-yl)methyl, N—(S)-(4-((3-chloro-4-fluorophenyl)carbamoyl)-7-fluoro-2,3-dihydro-1H-inden-1-yl) carbamate]", "pEC50": 7.00}
{"smiles": "O=C(Nc1ccc(F)c(Cl)c1)c1cccc2c1CN(C1CC1)S2(=O)=O", "note": "[Compound 279, N-(3-chloro-4-fluorophenyl)-2-cyclopropyl-2,3-dihydrobenzo[d]isothiazole-4-carboxamide 1,1-dioxide]", "pEC50": 6.24}
{"smiles": "CNC(=O)NC1(C)CCc2c(C(=O)Nc3ccc(F)c(Cl)c3)ccc(F)c21", "note": "(single isomer, unassigned) [Compound 215, N-(3-Chloro-4-fluorophenyl)-7-fluoro-1-methyl-1-(3-methylureido)-2,3-dihydro-1H-indene-4-carboxamide]", "pEC50": 5.42}
{"smiles": "O=C(N[C@H]1CCc2c(C(=O)Nc3ccc(F)c(Cl)c3)ccc(F)c21)OCC(F)F", "note": "[Compound 84, O-2,2-Difluoroethyl, N—(S)-(4-((3-chloro-4-fluorophenyl)carbamoyl)-7-fluoro-2,3-dihydro-1H-inden-1-yl) carbamate]", "pEC50": 6.77}
{"system": "HBV rcDNA in HepDE19 cells", "assay": "HepDE19 assay with bDNA quantitation of HBV rcDNA", "format": "cell-based, hepatitis B virus (HBV)", "details": "Hepatitis B virus, HepDE19, 168 h, read-out: DE-19 bDNA EC50 (μM), HepDE19 cells, inhibition of rcDNA formation, 7 day incubation, top concentration 25 μM", "units": {"EC50": "µM"}}
{"smiles": "O=C(N[C@H]1CCc2c(C(=O)Nc3ccc(F)c(Cl)c3)ccc(F)c21)OCCCO", "note": "[Compound 155, O-3-Hydroxypropyl, N—(S)-(4-((3-chloro-4-fluorophenyl)carbamoyl)-7-fluoro-2,3-dihydro-1H-inden-1-yl) carbamate]", "EC50": 24}
{"smiles": "Cc1cccn2cc(COC(=O)N[C@H]3CCc4c(C(=O)Nc5ccc(F)c(Cl)c5)ccc(F)c43)nc12", "note": "[Compound 87, O-(8-Methylimidazo[1,2-a]pyridin-2-yl)methyl, N—(S)-(4-((3-chloro-4-fluorophenyl)carbamoyl)-7-fluoro-2,3-dihydro-1H-inden-1-yl) carbamate Hydrochloride]", "EC50": 0.2}
{"smiles": "O=C(N[C@H]1CCc2c(C(=O)Nc3ccc(F)c(Cl)c3)ccc(F)c21)OCc1ccc(F)cn1", "note": "[Compound 109, O-(5-Fluoropyridin-2-yl)methyl, N—(S)-(4-((3-chloro-4-fluorophenyl)carbamoyl)-7-fluoro-2,3-dihydro-1H-inden-1-yl) carbamate]", "EC50": 0.27}
{"smiles": "C[C@H](OC(=O)N[C@H]1CCc2c(C(=O)Nc3ccc(F)c(Cl)c3)ccc(F)c21)c1ccccn1", "note": "[Compound 68, O—(S)-1-(Pyridin-2-yl)ethyl, N—((S)-4-((3-chloro-4-fluorophenyl)carbamoyl)-7-fluoro-2,3-dihydro-1H-inden-1-yl) carbamate]", "EC50": 0.39}
{"smiles": "CNC(=O)N[C@@H]1c2cccc(C(=O)Nc3ccc(F)c(Cl)c3)c2C[C@H]1O", "note": "[Compound 47, (1R,2R)—N-(3-Chloro-4-fluorophenyl)-2-hydroxy-1-(3-methylureido)-2,3-dihydro-1H-indene-4-carboxamide]", "EC50": 11}
{"smiles": "O=C(N[C@H]1CCc2c(C(=O)Nc3ccc(F)c(Cl)c3)ccc(F)c21)OCc1cc[nH]n1", "note": "[Compound 193, O-(1H-Pyrazol-3-yl)methyl, N—(S)-(4-((3-chloro-4-fluorophenyl)carbamoyl)-7-fluoro-2,3-dihydro-1H-inden-1-yl) carbamate]", "EC50": 0.06}
{"smiles": "O=C(N[C@H]1CCc2c(C(=O)Nc3ccc(F)c(Cl)c3)ccc(F)c21)OCCN1CCCC1=O", "note": "[Compound 14, O-2-(2-Oxopyrrolidin-1-yl)ethyl, N—(S)-(4-((3-chloro-4-fluorophenyl)carbamoyl)-7-fluoro-2,3-dihydro-1H-inden-1-yl) carbamate]", "EC50": 0.45}
{"smiles": "O=C(N[C@H]1CCc2c(C(=O)Nc3ccc(F)c(Cl)c3)ccc(F)c21)OCc1cnccn1", "note": "[Compound 78, O-Pyrazin-2-ylmethyl, N—(S)-(4-((3-chloro-4-fluorophenyl)carbamoyl)-7-fluoro-2,3-dihydro-1H-inden-1-yl) carbamate]", "EC50": 0.09}
{"smiles": "O=C(N[C@H]1CCc2c(C(=O)Nc3ccc(F)c(Cl)c3)ccc(F)c21)OCC(=O)N1CCCC1", "note": "[Compound 26, O-2-Oxo-2-(pyrrolidin-1-yl)ethyl, N—(S)-(4-((3-chloro-4-fluorophenyl)carbamoyl)-7-fluoro-2,3-dihydro-1H-inden-1-yl) carbamate]", "EC50": 0.44}
{"smiles": "Cc1cnc(COC(=O)N[C@H]2CCc3c(C(=O)Nc4ccc(F)c(Cl)c4)ccc(F)c32)cn1", "note": "[Compound 152, O-(5-Methylpyrazin-2-yl)methyl, N—(S)-(4-((3-chloro-4-fluorophenyl)carbamoyl)-7-fluoro-2,3-dihydro-1H-inden-1-yl)carbamate]", "EC50": 0.07}
